# Assay results published in article PMC8160813, “Design, Synthesis, and Evaluation of Dihydropyranopyrazole Derivatives as Novel PDE2 Inhibitors for the Treatment of Alzheimer’s Disease” (Molecules, 2021).
# What was measured:
# Format in all cases: biochemical
# [1] = target: T1, PDE2A (catalytic domain, 580–919) (Homo sapiens, UniProt O00408); test: In vitro PDE2 enzymatic inhibition assay (3H-cGMP substrate); details: for inhibition at 0.5 µM / inhibition at 0.1 µM: PDE2; for inhibition at 0.5 µM: compound at 0.5 μM, read-out: Inhibition Ratio (%) 0.5 μM; for inhibition at 0.1 µM: compound at 0.1 μM, read-out: Inhibition Ratio (%) 0.1 μM; for IC50: means ± SD of three experiments, 3H-cGMP, 25 °C, 15 min, read-out: IC50 (nM) against PDE2
# T1 construct: made in house; host or cells: E. coli BL21 (CodonPlus)
# T1 sequence (O00408 580-919): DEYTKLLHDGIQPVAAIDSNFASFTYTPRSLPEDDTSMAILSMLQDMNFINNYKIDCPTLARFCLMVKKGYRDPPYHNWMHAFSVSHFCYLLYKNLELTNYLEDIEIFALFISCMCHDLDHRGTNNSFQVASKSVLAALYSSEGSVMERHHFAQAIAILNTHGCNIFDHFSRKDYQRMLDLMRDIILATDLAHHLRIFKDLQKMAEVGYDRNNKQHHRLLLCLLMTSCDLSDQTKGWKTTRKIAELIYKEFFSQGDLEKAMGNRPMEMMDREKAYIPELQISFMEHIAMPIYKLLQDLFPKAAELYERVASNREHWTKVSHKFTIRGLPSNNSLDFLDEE
# Protocol: Purification and expression of the recombinant pET15b-PDE2A plasmid (catalytic domain, 580–919) was performed following our previously reported method. The plasmid pET15b-PDE2A (catalytic domain, 580–919) was transferred to thawed competent E. coli BL21 cells (CodonPlus, Agilent Technologies, Santa Clara, CA, USA), which were grown in 2XYT medium with 100 μg/mL ampicillin and 20 μg/mL chloramphenicol at 37 °C until OD600 = 0.6–0.8. Then, 0.1 mM isopropylthiogalactoside was added for induction, and protein expression was induced by continuing to grow the cells at 16 °C for 24 h. After that, bacteria were collected by centrifugation and frozen overnight at −20 °C. The bacteria containing the recombinant plasmid of the target protein were subjected to cell disruption and passed through a Ni-NTA agarose affinity column, Q-Sepharose ion-exchange column and other steps. The purity can be 95% or more, and a typical purification batch produces 10–20 mg of PDE2A protein from 1.0 L of cell culture.
# Using the appropriate concentration of ^3H-cGMP as the substrate, different compound solutions were added to the test group, DMSO was added to the negative control and blank control groups, and EHNA was added to the positive control group, followed by protein solution (the proteins were all diluted with Assay Buffer); Assay Buffer was added to the blank group. The enzymatic reaction was performed at room temperature (25 °C) for 15 min, and then, 0.2 M ZnSO4 was added to inactivate PDE2 and to stop the reaction. Then, 0.2 N Ba(OH)2 solution was added to precipitate the reaction product, and unreacted ^3H-cGMP remained in the supernatant. After mixing the system, it was centrifuged. The radioactivity of the supernatant was measured with a liquid scintillation counter, and the inhibitory activity of the compound against PDE2 was calculated. The above test was repeated three times (the IC50 test generally used 9 concentrations, and the single-point test was directly diluted with DMSO to the required concentration).
# PDE4D2 (86–413) = target: T2, PDE4D2 (86–413) (Homo sapiens, UniProt Q08499); test: PDE selectivity enzymatic assay, PDE4D2; details: Table 2 selectivity panel
# T2 construct: PDE4D2 (86–413)
# T2 sequence (Q08499 388-715): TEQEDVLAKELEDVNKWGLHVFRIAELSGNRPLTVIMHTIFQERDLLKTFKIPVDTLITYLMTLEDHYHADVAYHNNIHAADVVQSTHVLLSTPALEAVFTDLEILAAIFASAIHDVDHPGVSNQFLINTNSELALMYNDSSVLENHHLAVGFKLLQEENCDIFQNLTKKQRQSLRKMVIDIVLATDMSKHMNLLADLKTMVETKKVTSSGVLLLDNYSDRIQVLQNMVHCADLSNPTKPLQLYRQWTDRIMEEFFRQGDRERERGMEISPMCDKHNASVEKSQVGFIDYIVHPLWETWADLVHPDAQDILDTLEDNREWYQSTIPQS
# PDE1C (2–634) = target: T3, PDE1C (2–634) (Homo sapiens, UniProt Q14123); test: PDE selectivity enzymatic assay, PDE1C; details: Table 2 selectivity panel
# T3 construct: PDE1C (2–634)
# T3 sequence (Q14123 2-634 isoform Q14123-2): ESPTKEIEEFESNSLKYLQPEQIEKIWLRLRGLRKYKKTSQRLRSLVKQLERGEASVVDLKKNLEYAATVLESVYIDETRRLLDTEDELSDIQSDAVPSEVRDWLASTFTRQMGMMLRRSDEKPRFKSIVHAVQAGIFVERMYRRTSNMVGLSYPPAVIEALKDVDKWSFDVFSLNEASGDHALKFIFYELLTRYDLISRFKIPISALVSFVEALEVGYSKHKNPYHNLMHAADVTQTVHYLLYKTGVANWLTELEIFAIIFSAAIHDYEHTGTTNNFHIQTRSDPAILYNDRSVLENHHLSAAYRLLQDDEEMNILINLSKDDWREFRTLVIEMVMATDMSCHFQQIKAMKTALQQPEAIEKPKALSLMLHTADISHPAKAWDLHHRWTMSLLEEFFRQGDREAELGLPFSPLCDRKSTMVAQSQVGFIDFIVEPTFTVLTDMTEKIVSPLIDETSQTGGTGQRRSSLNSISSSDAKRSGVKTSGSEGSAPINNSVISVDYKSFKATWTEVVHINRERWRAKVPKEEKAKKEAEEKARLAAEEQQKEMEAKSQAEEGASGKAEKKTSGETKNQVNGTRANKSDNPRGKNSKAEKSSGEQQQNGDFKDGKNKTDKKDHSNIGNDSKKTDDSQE
smiles,measurement,setting,value
"COc1ccc(C2C(C#N)=C(N)Oc3[nH]nc(C)c32)c(OCc2ccc(Cl)cc2)c1 (centres unmarked) [Compound 11c, 6-Amino-4-(2-((4-chlorobenzyl)oxy)-4-methoxyphenyl)-3-methyl-1,4-dihydropyrano[2,3-c]pyrazole-5-carbonitrile]",inhibition at 0.5 µM,[1],29%
"Cc1n[nH]c2c1C(c1cc(OCc3ccc(C(F)(F)F)cc3)ccc1OCc1ccc(C(F)(F)F)cc1)C(C#N)=C(N)O2 (centres unmarked) [Compound 11l, 6-Amino-4-(2,5-bis((4-(trifluoromethyl)benzyl)oxy)phenyl)-3-methyl-1,4-dihydropyrano[2,3-c]pyrazole-5-carbonitrile]",inhibition at 0.5 µM,[1],13.4%
COc1ccc([C@H]2C(C#N)=C(N)Oc3[nH]nc(C)c32)cc1OCc1ccc(Cl)cc1 [(R)-LZ77],inhibition at 0.1 µM,[1],30.4%
same,inhibition at 0.5 µM,[1],67.5%
same,IC50,[1],261 ± 11.2 nM
"COc1ccc(OCc2ccc(Cl)cc2)c(C2C(C#N)=C(N)Oc3[nH]nc(C)c32)c1 (centres unmarked) [Compound 11f, 6-Amino-4-(2-((4-chlorobenzyl)oxy)-5-methoxyphenyl)-3-methyl-1,4-dihydropyrano[2,3-c]pyrazole-5-carbonitrile]",inhibition at 0.1 µM,[1],48.1%
same,inhibition at 0.5 µM,[1],79.2%
same,IC50,[1],115 ± 1.3 nM
"COc1ccc(OCc2ccc(C(F)(F)F)cc2)c(C2C(C#N)=C(N)Oc3[nH]nc(C)c32)c1 (single isomer, unassigned; (+)) [(+)-11h]",IC50,PDE4D2 (86–413),> 10000 nM
same,inhibition at 0.1 µM,[1],75.9%
same,inhibition at 0.5 µM,[1],93.6%
same,IC50,[1],41.5 ± 3.4 nM
same,IC50,PDE1C (2–634),8760 ± 668 nM
"COc1ccc(COc2cc(OC)ccc2C2C(C#N)=C(N)Oc3[nH]nc(C)c32)cc1 (centres unmarked) [Compound 11a, 6-Amino-4-(4-methoxy-2-((4-methoxybenzyl)oxy)phenyl)-3-methyl-1,4-dihydropyrano[2,3-c]pyrazole-5-carbonitrile]",inhibition at 0.5 µM,[1],27%
